According to US20230381332A1, “Deuterated Camptothecin Derivative And Antibody-drug Conjugate Thereof” (Baili-Bio (Chengdu) Pharmaceutical Co., Ltd., priority 2020, published 2023):

Experiment: Clearance half-life test of deuterated camptothecin drugs in liver microsomes
Type: in vitro ADME, Human
Conditions: human liver microsomes 1.0 mg/ml, 10 μM test article, NADPH 1.0 mM, 37° C., 120 minutes
Experimental: Embodiment 36: Clearance Half-Life Test of Deuterated Camptothecin Drugs
Human liver microsomes (supplied by Xenotech))
1. Add the working solution of the test substance to the liver microsome working solution and pre-incubate at 37° C. for 5 minutes, then add the prepared NADPH working solution and mix well. Make the reaction volume of the incubation system reach 200 μL, and the liver microsomes concentration in the incubation system is 1.0 mg/mL, the test substance concentration is 10 μM. The incubation tube is incubated in a water bath at 37° C. for 120 minutes. In the incubation system of the test substance, total organic solvents (DMSO and acetonitrile or other organic The minimum volume content of the solvent) is <1%, and the DMSO content is <0.1%. All operations are performed on wet ice.
2. For the blank sample, add the corresponding volume of phosphate buffer solution instead of the working solution of the test substance. For the 0 min sample, first add the stop solution and the liver microsome solution and mix well, and then add the working solution of the test substance.
3. At the end of the incubation, add 400 μL of stop solution to terminate the reaction, and remove the incubation sample from the water bath.
4. After the reaction was terminated, the sample was shaken and centrifuged at a centrifugal force of 4700 g for 10 minutes. After centrifugation, 200 μL of the supernatant was pipetted into a 96-well plate and directly used for LC-MS analysis to analyze metabolites and main drug ratio.
In the case of `CC[C@@]1(O)C(=O)OCc2c1cc1n(c2=O)Cc2c-1nc1cc(F)c(C)c3c1c2[C@@H](NC(=O)CO)CC3` [Compound 2, reference compound], the “Ratio of main drug after incubation” value is reported as 65%.
For `[2H]C(O)C(=O)N[C@H]1CCc2c(C)c(F)cc3nc4c(c1c23)Cn1c-4cc2c(c1=O)COC(=O)[C@]2(O)CC` (stereo partly drawn) [D-D1], the “Ratio of main drug after incubation” value was 98%.

Same assay, conditions: human, 120 min, 10 μM
In the case of `CC[C@@]1(O)C(=O)OCc2c1cc1n(c2=O)Cc2c-1nc1cc(F)c(C)c3c1c2[C@@H](NC(=O)[C@H](C)O)CC3` [Compound 3, reference compound], the “Ratio of main drug after incubation” value is reported as 56%.
In the case of `CC[C@@]1(O)C(=O)OCc2c1cc1n(c2=O)Cc2c-1nc1cc(F)c(C)c3c1c2[C@@H](NC(=O)[C@H](O)C(F)(F)F)CC3` [Compound 5, reference compound], the “Ratio of main drug after incubation” value is reported as 73%.
With `CC[C@@]1(O)C(=O)OCc2c1cc1n(c2=O)Cc2c-1nc1cc(F)c(C)c3c1c2[C@@H](NC(=O)[C@@H](O)C1CC1)CC3` [Compound 7, reference compound] the “Ratio of main drug after incubation” value was 85%.
In the case of `[2H]C(C)(O)C(=O)N[C@H]1CCc2c(C)c(F)cc3nc4c(c1c23)Cn1c-4cc2c(c1=O)COC(=O)[C@]2(O)CC` (stereo partly drawn) [D-D3], the “Ratio of main drug after incubation” value is reported as 97%.
For `[2H]C(O)(C(=O)N[C@H]1CCc2c(C)c(F)cc3nc4c(c1c23)Cn1c-4cc2c(c1=O)COC(=O)[C@]2(O)CC)C(F)(F)F` (stereo partly drawn) [D-D5], the “Ratio of main drug after incubation” value was 99%.
In the case of `[2H]C(O)(C(=O)N[C@H]1CCc2c(C)c(F)cc3nc4c(c1c23)Cn1c-4cc2c(c1=O)COC(=O)[C@]2(O)CC)C1CC1` (stereo partly drawn) [D-D7], the “Ratio of main drug after incubation” value is reported as 96%.
For `[2H]C([2H])([2H])C([2H])(O)C(=O)N[C@H]1CCc2c(C)c(F)cc3nc4c(c1c23)Cn1c-4cc2c(c1=O)COC(=O)[C@]2(O)CC` (stereo partly drawn) [D-D11], the “Ratio of main drug after incubation” value was 96%.
In the case of `[2H]C([2H])([2H])N(C(=O)CO)[C@@H]1CCc2c(C)c(F)cc3nc4c(c1c23)Cn1c-4cc2c(c1=O)COC(=O)[C@]2(O)CC` [D-D15], the “Ratio of main drug after incubation” value is reported as 91%.
With `[2H]C([2H])([2H])C(O)C(=O)N(C)[C@@H]1CCc2c(C)c(F)cc3nc4c(c1c23)Cn1c-4cc2c(c1=O)COC(=O)[C@]2(O)CC` (stereo partly drawn) [D-D19] the “Ratio of main drug after incubation” value was 97%.
